Data on nine compounds can be found in patent US5239082A, “Sulfonamide tetrazole ACAT inhibitors” (Warner-Lambert Company, priority 1992, dated 1993).

A short description of assay [1]: in vivo screen designated APCC, rats on high fat, high cholesterol diet with 0.5% cholic acid, blood cholesterol. Also noted: species or system male Sprague-Dawley rats. The note with it: Rattus norvegicus, 16 h, dosed at 4 PM in CMC/Tween, sacrificed at 8 AM, high cholesterol diet overnight, read-out: APCC (% ΔTC). From the text: In one in vivo screen designated APCC, male Sprague-Dawley rats (200 to 225 g) were randomly divided into treatment groups and dosed at 4 PM with either vehicle (CMC/Tween) or suspensions of compounds in vehicle. The normal chow diet was then replaced with a high fat, high cholesterol diet with 0.5% cholic acid. The rats consumed this diet ad libitum during the night and were sacrificed at 8 AM to obtain blood samples for cholesterol analysis using standard procedures. Statistical differences between mean cholesterol values for the same vehicle were determined using analysis of variance followed by Fisher's least significant test. The results of this trial for representative compounds of the present invention also appear in Table 1.

For assay [2], the target named is T1, acyl-CoA: cholesterol acyltransferase (ACAT) (Oryctolagus cuniculus, UniProt G1SFD9).
T1 construct: tissue preparation containing rabbit intestinal microsomes; from tissue; host or cells: rabbit intestinal microsomes
T1 sequence (G1SFD9 1-524): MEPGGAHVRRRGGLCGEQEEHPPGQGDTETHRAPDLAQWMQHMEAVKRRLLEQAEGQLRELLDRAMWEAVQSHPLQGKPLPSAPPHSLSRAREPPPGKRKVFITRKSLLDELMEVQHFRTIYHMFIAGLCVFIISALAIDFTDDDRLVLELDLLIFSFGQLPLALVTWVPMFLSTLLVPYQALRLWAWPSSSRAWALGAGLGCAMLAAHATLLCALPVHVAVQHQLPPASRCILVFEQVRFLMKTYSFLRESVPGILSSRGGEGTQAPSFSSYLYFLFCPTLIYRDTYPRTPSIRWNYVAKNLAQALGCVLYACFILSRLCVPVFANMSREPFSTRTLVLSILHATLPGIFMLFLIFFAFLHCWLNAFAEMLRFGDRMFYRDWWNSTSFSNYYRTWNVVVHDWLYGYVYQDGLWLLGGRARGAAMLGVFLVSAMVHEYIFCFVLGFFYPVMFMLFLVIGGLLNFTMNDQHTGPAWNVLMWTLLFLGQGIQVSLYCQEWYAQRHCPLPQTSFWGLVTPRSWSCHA
As to the kind of experiment: in vitro ACAT inhibition test (IAI), radiolabeled cholesterol oleate formed from radiolabeled oleic acid in rabbit intestinal microsomes. The note with it: inhibition of acylation of cholesterol by oleic acid. It is filed as biochemical. How it is done:
The ability of representative compounds of the present invention to inhibit ACAT was measured using an in vitro test more fully described in Field FJ, Salone RG. Biochemica et Biophysica 1982;712:557-70. The test assesses the ability of a test compound to inhibit the acylation of cholesterol by oleic acid by measuring the amount of radiolabeled cholesterol oleate formed from radiolabeled oleic acid in a tissue preparation containing rabbit intestinal microsomes.
The data appear in Table 1 where they are expressed as IC50 values; i.e., the concentration of test compound required to inhibit the activity of the enzyme by 50%.

Each structure is given as a SMILES string.

Take `CCCCCCCCCCCCn1nnc(C(C)(C)S(=O)(=O)Nc2c(C(C)C)cccc2C(C)C)n1` [Example 9, N-[2,6-Bis(1-methylethyl)phenyl]-2-dodecyl-α,α-dimethyl-2H-tetrazole-5-methanesulfonamide]: the change in vivo at 30 mg/kg in assay [1] was -53%. Also, the midpoint of inhibition in assay [2], the IC50, lay at 40 nM.

In the case of `CCCCCCCCCCCCn1nnnc1CS(=O)(=O)Nc1c(OC)cc(OC)cc1OC` [Example 8, N-(2,4,6-trimethoxyphenyl)-1-dodecyl-1H-tetrazole-5-methanesulfonamide], in assay [1], the change in vivo at 30 mg/kg is -30%. The compound also gave an IC50 in assay [2] of 3700 nM.

As to `CCCCCCCCCCCCCCn1nnc(CS(=O)(=O)Nc2c(C(C)C)cccc2C(C)C)n1` [Example 3, N-[2,6-bis(1-methylethyl)phenyl]-2-tetradecyl-2H-tetrazole-5-methanesulfonamide], in assay [1], the change in vivo at 30 mg/kg was -42%. The compound further registered an IC50 in assay [2] of 150 nM.

Take `CCCCCCCCCCCCCCCCn1nnc(CS(=O)(=O)Nc2c(C(C)C)cccc2C(C)C)n1` [Example 2, N-[2,6-bis(1-methylethyl)phenyl]-2-hexadecyl-2H-tetrazole-5-methanesulfonamide]: the change in vivo at 30 mg/kg in assay [1] is -20%. The IC50 in assay [2] was 600 nM.

In the case of `CCCCCCCCCCCCn1nnc(CS(=O)(=O)Nc2c(OC)cc(OC)cc2OC)n1` [Example 7, N-(2,4,6-trimethoxyphenyl)-2-dodecyl-2H-tetrazole-5-methanesulfonamide], in assay [1], the change in vivo at 30 mg/kg was -60%. Besides, the IC50 in assay [2] is 180 nM.

On to `CCCCCCCCn1nnc(CS(=O)(=O)Nc2c(C(C)C)cccc2C(C)C)n1` [Example 4, N-[2,6-bis(1-methylethyl)phenyl]-2-octyl-2H-tetrazole-5-methanesulfonamide], for which the change in vivo at 30 mg/kg in assay [1] was -14%. Besides, the midpoint of inhibition in assay [2], the IC50, lay at 750 nM.

Consider `CCCCCCCCCCCCn1nnnc1CS(=O)(=O)Nc1c(C(C)C)cccc1C(C)C` [Example 6, N-[2,6-bis(1-methylethyl)phenyl]-1-dodecyl-1H-tetrazole-5-methanesulfonamide], for which the change in vivo at 30 mg/kg in assay [1] was -41%. In addition, the IC50 in assay [2] amounted to 1200 nM.

For the compound `CCCCCCCCCCCCCCCCCCn1nnc(CS(=O)(=O)Nc2c(C(C)C)cccc2C(C)C)n1` [Example 5, N-[2,6-bis(1-methylethyl)phenyl]-2-octadecyl-2H-tetrazole-5-methanesulfonamide], the change in vivo at 30 mg/kg in assay [1] is -31%. The half-inhibitory concentration (IC50) in assay [2] came to 7600 nM.

On to `CCCCCCCCCCCCn1nnc(CS(=O)(=O)Nc2c(C(C)C)cccc2C(C)C)n1` [Example 1, N-[2,6-Bis(1-methylethyl)phenyl]-2-dodecyl-2H-tetrazole-5-methanesulfonamide], for which the change in vivo at 30 mg/kg in assay [1] was -61%. This compound yielded an IC50 in assay [2] of 222 nM.
